Experimental data from patent US11214594B2, “Antimicrobial peptide having synergistic antibacterial effect with antibiotics on multidrug resistant bacteria, and use thereof” (priority 2016, dated 2022).
Where two headings read alike, the source gives them in different places. Where a SMILES comes first, the peptide text is derived from it. [ ]: non-standard residue; d: D form.

Experiments:
MDRAB 12035 [1] = test: MIC of antibiotic during combined treatment with antimicrobial peptide; assay type: cell-based, Acinetobacter baumannii
Method in brief: (§1)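 Antibiotic MIC came from antibiotic dilutions added to bacteria (2×10^6 CFU/ml, MH medium) already combined with peptide serially diluted 2:1 from its own MIC. Swapping the roles of the two agents gave the peptide MIC.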

E. coli = assay type: cell-based, Escherichia coli; conditions: E. coli
Method in brief: as §1

MDREC 1229 = assay type: cell-based, Escherichia coli
Method in brief: as §1

A. baumannii = test: MIC of antimicrobial peptide during combined treatment with antibiotic; assay type: cell-based, Acinetobacter baumannii
Method in brief: as §1

MDRAB 12035 [2] = test: as above; assay type: cell-based, Acinetobacter baumannii
Method in brief: as §1

[3] = peptide treatment concentration 8 μg/ml
[4] = peptide treatment concentration 16 μg/ml
[5] = peptide treatment concentration 32 μg/ml
[6] = peptide treatment concentration 64 μg/ml
[7] = linezolid 64 μg/ml (Conc./MIC 1/8)
[8] = linezolid 512 μg/ml (Conc./MIC 1)
[9] = vancomycin 512 μg/ml (Conc./MIC 1/2)
[10] = vancomycin 1024 μg/ml (Conc./MIC 1)
[11] = erythromycin 4 μg/ml (Conc./MIC 1/8)
[12] = erythromycin 8 μg/ml (Conc./MIC 1/4)
[13] = erythromycin 16 μg/ml (Conc./MIC 1/2)
[14] = erythromycin 32 μg/ml (Conc./MIC 1)

CC[C@H](C)[C@H](NC(=O)[C@H](CCCCN)NC(=O)[C@H](Cc1c[nH]c2ccccc12)NC(=O)[C@@H](N)CCCNC(=N)N)C(=O)N[C@@H](Cc1ccccc1)C(=O)N[C@@H](CCCCN)C(=O)N[C@@H](CCCCN)C(=O)N[C@H](C(=O)N[C@H](CCCCN)C(=O)N[C@@H](CCCCN)C(=O)N[C@@H](CC(C)C)C(=O)N[C@@H](CC(C)C)C(=O)N[C@@H](Cc1c[nH]cn1)C(=O)N[C@@H](CCC(=O)O)C(=O)N[C@@H](C)C(=O)N[C@@H](CCCCN)C(=O)N[C@@H](CCCCN)C(=O)N[C@@H](Cc1c[nH]c2ccccc12)C(N)=O)[C@@H](C)CC [PapMA-20, RWK IFK KIk KLL HEA KKW-NH2] (H-RWKIFKKI[dK]KLLHEAKKW-NH2; N-terminus assumed)
Erythromycin MIC during combined treatment with peptide (MDRAB 12035 [1]; [3]): 0.5 µg/mL
Linezolid MIC during combined treatment with peptide (MDRAB 12035 [1]; [3]): 4 µg/mL
Vancomycin MIC during combined treatment with peptide (MDRAB 12035 [1]; [3]): 4 µg/mL
Erythromycin MIC during combined treatment with peptide (MDRAB 12035 [1]; [4]): 0 µg/mL
Linezolid MIC during combined treatment with peptide (MDRAB 12035 [1]; [4]): 0 µg/mL
Vancomycin MIC during combined treatment with peptide (MDRAB 12035 [1]; [4]): 0 µg/mL
Erythromycin MIC during combined treatment with peptide (MDRAB 12035 [1]; [5]): 0 µg/mL
Linezolid MIC during combined treatment with peptide (MDRAB 12035 [1]; [5]): 0 µg/mL
Vancomycin MIC during combined treatment with peptide (MDRAB 12035 [1]; [5]): 0 µg/mL
Erythromycin MIC during combined treatment with peptide (MDRAB 12035 [1]; [6]): 0 µg/mL
Linezolid MIC during combined treatment with peptide (MDRAB 12035 [1]; [6]): 0 µg/mL
Vancomycin MIC during combined treatment with peptide (MDRAB 12035 [1]; [6]): 0 µg/mL
Peptide MIC (E. coli; with Erythromycin […] (Conc./MIC 1)): 0 µg/mL
Peptide MIC (E. coli; with Linezolid […] (Conc./MIC 1)): 0 µg/mL
Peptide MIC (E. coli; with Vancomycin 1024 μg/ml (Conc./MIC 1)): 0 µg/mL
Peptide MIC during treatment with antibiotic (MDREC 1229; erythromycin 32 μg/ml (Conc./MIC 1/8)): 2 µg/mL
Peptide MIC during treatment with antibiotic (MDREC 1229; erythromycin 64 μg/ml (Conc./MIC 1/4)): 2 µg/mL
Peptide MIC during treatment with antibiotic (MDREC 1229; erythromycin […] (Conc./MIC 1)): 0 µg/mL
Peptide MIC during treatment with antibiotic (MDREC 1229; erythromycin […] (Conc./MIC 1/2)): 1 µg/mL
Peptide MIC during treatment with antibiotic (MDREC 1229; [7]): 2 µg/mL
Peptide MIC during treatment with antibiotic (MDREC 1229; [8]): 0 µg/mL
Peptide MIC during treatment with antibiotic (MDREC 1229; linezolid […] (Conc./MIC 1/2)): 1 µg/mL
Peptide MIC during treatment with antibiotic (MDREC 1229; linezolid […] (Conc./MIC 1/4)): 2 µg/mL
Peptide MIC during treatment with antibiotic (MDREC 1229; [9]): 2 µg/mL
Peptide MIC during treatment with antibiotic (MDREC 1229; [10]): 1 µg/mL
Peptide MIC during treatment with antibiotic (MDREC 1229; vancomycin […] (Conc./MIC 1/4)): 4 µg/mL
Peptide MIC during treatment with antibiotic (MDREC 1229; vancomycin […] (Conc./MIC 1/8)): 4 µg/mL
Peptide MIC during treatment with antibiotic (A. baumannii; [11]): 4 µg/mL
Peptide MIC during treatment with antibiotic (A. baumannii; [12]): 4 µg/mL
Peptide MIC during treatment with antibiotic (A. baumannii; [13]): 2 µg/mL
Peptide MIC during treatment with antibiotic (A. baumannii; [14]): 0 µg/mL
Peptide MIC during treatment with antibiotic (A. baumannii; linezolid 32 μg/ml (Conc./MIC 1/8)): 4 µg/mL
Peptide MIC during treatment with antibiotic (A. baumannii; linezolid 64 μg/ml (Conc./MIC 1/4)): 2 µg/mL
Peptide MIC during treatment with antibiotic (A. baumannii; linezolid […] (Conc./MIC 1)): 0 µg/mL
Peptide MIC during treatment with antibiotic (A. baumannii; linezolid […] (Conc./MIC 1/2)): 1 µg/mL
Peptide MIC during treatment with antibiotic (A. baumannii; [9]): 0.25 µg/mL
Peptide MIC during treatment with antibiotic (A. baumannii; [10]): 0 µg/mL
Peptide MIC during treatment with antibiotic (A. baumannii; vancomycin […] (Conc./MIC 1/4)): 0.5 µg/mL
Peptide MIC during treatment with antibiotic (A. baumannii; vancomycin […] (Conc./MIC 1/8)): 4 µg/mL
Peptide MIC during treatment with erythromycin (MDRAB 12035 [2]; [11]): 4 µg/mL
Peptide MIC during treatment with erythromycin (MDRAB 12035 [2]; [12]): 4 µg/mL
Peptide MIC during treatment with erythromycin (MDRAB 12035 [2]; [13]): 2 µg/mL
Peptide MIC during treatment with erythromycin (MDRAB 12035 [2]; [14]): 0 µg/mL
Peptide MIC during treatment with linezolid (MDRAB 12035 [2]; [7]): 4 µg/mL
Peptide MIC during treatment with linezolid (MDRAB 12035 [2]; [8]): 0 µg/mL
Peptide MIC during treatment with linezolid (MDRAB 12035 [2]; linezolid […] (Conc./MIC 1/2)): 1 µg/mL
Peptide MIC during treatment with linezolid (MDRAB 12035 [2]; linezolid […] (Conc./MIC 1/4)): 2 µg/mL
Peptide MIC during treatment with vancomycin (MDRAB 12035 [2]; [9]): 2 µg/mL
Peptide MIC during treatment with vancomycin (MDRAB 12035 [2]; [10]): 1 µg/mL
Peptide MIC during treatment with vancomycin (MDRAB 12035 [2]; vancomycin […] (Conc./MIC 1/4)): 2 µg/mL
Peptide MIC during treatment with vancomycin (MDRAB 12035 [2]; vancomycin […] (Conc./MIC 1/8)): 4 µg/mL
